# In patent US12012373B2, “Cannabinoid derivatives” (CANOPY GROWTH CORPORATION, priority 2019, dated 2024):
# pIC50: −log10 of the molar value.
# How the values were obtained:
# [1] = target: T1, human CB2 receptor (Homo sapiens, UniProt P34972); assay: CB2 radioligand competitive binding assay ([3H]CP 55,940 displacement); settings: for pIC50: [3H]CP 55,940 displacement, CHO-K1 membranes expressing human CB2 receptor; for Selectivity CB2: fold difference in binding between CB1 and CB2, shown in the column of the receptor with higher affinity, 1.00 in both = about same affinity
# T1 construct: membranes prepared in house
# Description: Compounds of the present disclosure were tested for CB1 receptor binding affinity and for CB2 receptor binding affinity. As used herein, “binding affinity” is represented by the IC50 value, which was experimentally determined as described herein. The lower the IC50 value the higher the binding affinity. A compound of the present disclosure may be said to have “binding selectivity” If it has a higher binding affinity for one receptor compared to the other.
# The membranes were prepared from CHO-K1 (Chinese hamster ovary) cells stably transfected with the human CB2 receptor (Cat. #ES-111-C; Perkin Elmer, Boston, MA). The cells were grown adherently and maintained in Ham's F12 medium containing 10% fetal bovine serum (FBS), penicillin, streptomycin and geneticin (G418) at 37° C. in a humid atmosphere of 5% CO2 following the manufacturer's Instructions.
# For membrane preparation the cells were washed with PBS and scraped off the plates in cold homogenization buffer (25 mM HEPES (pH 7.4), 2 mM EDTA) containing protease inhibitor cocktail (Sigma Cat. #P8340). The cell suspension was homogenized with a Pro-PK-01200D Polytron Homogenizer (Pro Scientific) and then centrifuged for 30 min at 120,000×g. The supernatant was discarded and the pellet was re-suspended in the homogenization buffer and stored at −80° C. until the time of use.
# In this experiment, 3H radiolabeled CP 55,940, i.e. [3H]CP 55,940 (Perkin Elmer, Boston, MA), was used as a radioligand for the CB2 receptor to determine the binding affinity of compounds for the CB2 receptor (Scheme 8; above).
# The competition binding experiments (single dose and dose-response) were performed by incubating 0.6 nM of [3H]CP55,940 (specific activity 101 Ci/mmol, Perkin Elmer) and different concentrations of compounds disclosed herein with membranes prepared as above from CHO-K1 cells expressing human CB2 receptor (1 μg of protein/well), 50 mM Tris-HCl (pH 7.4), 5 mM MgCl2, 1 mM CaCl2, and 2 mg/mL BSA.
# For the single dose experiments, the compound stocks (usually 10 mM in DMSO) were diluted to working stocks in the binding buffer to give the final compound concentrations of 10 μM and 1 μM. For the dose-response experiments the test compounds were sequentially diluted to provide the desired concentration range for the IC50 determination. In each case the compounds were pre-incubated with the membrane for 20 min, before adding the radioligand.
# After incubation with the radioligand for 60 min at 37° C., the incubation was terminated by rapid filtration of assay mixture through MultiScreen®HTS^+ 96-well filter plates (Millipore, Cat. #MSFCNXB), pre-soaked for 60 min with 50 mM Tris-HCl (pH 7.4) containing 0.33% polyethylenimine (PEI). The nonspecific binding (NSB) was determined in the presence of 10 μM unlabeled CP55,940. After drying the filter plate at 50° C. for at least 60 min, the filter-bound radioactivity was determined by scintillation spectrometry using the 1450 MicroBeta Plate Counter (Perkin Elmer, Boston, MA). From the dose-response experiments, the IC50 values were determined (see Table 1, CB2 IC50).
# [2] = target: T2, human CB1 receptor (Homo sapiens, UniProt P21554); assay: biochemical; type: binding; design: membranes prepared in house; settings: for Selectivity CB1: fold difference in binding between CB1 and CB2, shown in the column of the receptor with higher affinity, 1.00 in both = about same affinity
# [3] = target: T2, human CB1 receptor; assay: PathHunter β-Arrestin functional assay, CB1 receptor, antagonist mode; type: cell-based; design: membranes prepared in house; settings: for inhibition at 4 µM: read-out: relative inhibition in comparison to rimonabant
# T2 sequence (P21554 whole entry): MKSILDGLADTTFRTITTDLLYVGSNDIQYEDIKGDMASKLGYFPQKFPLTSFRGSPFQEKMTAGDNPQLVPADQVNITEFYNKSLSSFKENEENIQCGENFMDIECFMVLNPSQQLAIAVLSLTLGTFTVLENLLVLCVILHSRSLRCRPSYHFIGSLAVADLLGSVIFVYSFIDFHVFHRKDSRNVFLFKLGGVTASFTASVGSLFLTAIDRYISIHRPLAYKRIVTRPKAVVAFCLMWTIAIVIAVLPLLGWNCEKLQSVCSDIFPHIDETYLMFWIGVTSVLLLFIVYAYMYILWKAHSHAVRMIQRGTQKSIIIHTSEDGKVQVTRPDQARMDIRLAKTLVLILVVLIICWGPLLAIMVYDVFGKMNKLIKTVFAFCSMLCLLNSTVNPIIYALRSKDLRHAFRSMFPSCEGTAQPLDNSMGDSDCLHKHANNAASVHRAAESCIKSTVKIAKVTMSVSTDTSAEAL
# T1 sequence (P34972 whole entry): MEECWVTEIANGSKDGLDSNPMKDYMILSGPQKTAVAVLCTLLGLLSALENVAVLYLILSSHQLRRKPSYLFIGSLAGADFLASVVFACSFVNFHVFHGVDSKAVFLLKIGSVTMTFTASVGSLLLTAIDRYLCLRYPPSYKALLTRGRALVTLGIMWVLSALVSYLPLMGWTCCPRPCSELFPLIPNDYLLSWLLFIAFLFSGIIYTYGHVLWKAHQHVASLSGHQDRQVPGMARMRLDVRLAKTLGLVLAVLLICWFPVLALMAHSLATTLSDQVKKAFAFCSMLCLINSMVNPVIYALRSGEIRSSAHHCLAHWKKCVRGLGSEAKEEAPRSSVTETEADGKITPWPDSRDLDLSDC
SMILES,pIC50 [1],Selectivity CB2 [1],pIC50 [2],Selectivity CB1 [2],pIC50 [3],inhibition at 4 µM [3]
"C=C(C)[C@@H]1CCC(C)=C[C@H]1c1c(O)cc(CCCCC)c(S(=O)(=O)N(C)C)c1O (stereo in doubt) [Compound 21d, 2,6-dihydroxy-N,N,5′-trimethyl-4-pentyl-2′-(prop-1-en-2-yl)-1′,2′,3′,4′-tetrahydro-[1,1′-biphenyl]-3-sulfonamide]",6.00 to 7.00,1.41 fold,6.00 to 7.00,–,–,–
"C=C(C)[C@@H]1CCC(C)=C[C@H]1c1c(O)cc(CCCCC)c(S(=O)(=O)NC(C)C)c1O (stereo in doubt) [Compound 23d, 2,6-dihydroxy-N-isopropyl-5′-methyl-4-pentyl-2′-(prop-1-en-2-yl)-1′,2′,3′,4′-tetrahydro-[1,1′-biphenyl]-3-sulfonamide]",6.00 to 7.00,2.56 fold,5.30 to 6.00,–,–,–
"C=C(C)[C@@H]1CCC(C)=C[C@H]1c1c(O)cc(CCCCC)c(S(C)(=O)=O)c1O [Compound 3d, 5′-methyl-3-(methylsulfonyl)-4-pentyl-2′-(prop-1-en-2-yl)-1′,2′,3′,4′-tetrahydro-[1,1′-biphenyl]-2,6-diol]",5.30 to 6.00,2.00 fold,5.30 to 6.00,–,–,–
"CCCCCc1cc(O)c(C2C=C(C)CCC2)c(O)c1S(N)(=O)=O (stereo not shown) [Compound 19c, 2,6-dihydroxy-5′-methyl-4-pentyl-1′,2′,3′,4′-tetrahydro-[1,1′-biphenyl]-3-sulfonamide]",5.30 to 6.00,1.00 fold,5.30 to 6.00,1.00 fold,–,–
"CCCCCc1cc(O)c(C2C=C(C)CCC2)c(O)c1S(=O)(=O)NC1CC1 (stereo not shown) [Compound 22c, N-cyclopropyl-2,6-dihydroxy-5′-methyl-4-pentyl-1′,2′,3′,4′-tetrahydro-[1,1′-biphenyl]-3-sulfonamide]",6.00 to 7.00,11.59 fold,5.30 to 6.00,–,5.52 to 6.11,11 to 79%
"C=C(C)[C@@H]1CCC(C)=C[C@H]1c1c(O)cc(CCCCC)c(S(=O)(=O)NC2CC2)c1O [Compound 22d, N-Cyclopropyl-2,6-Dihydroxy-5′-Methyl-4-Pentyl-2′-(Prop-1-En-2-Yl)-1′,2′,3′,4′-Tetrahydro-[1,1′-Biphenyl]-3-Sulfonamide]",5.30 to 6.00,1.52 fold,5.30 to 6.00,–,5.52 to 6.11,11 to 79%
"CCCCCc1cc(O)c(C2C=C(C)CCC2)c(O)c1S(=O)(=O)Nc1ccccc1 (stereo not shown) [Compound 24c, 2,6-dihydroxy-5′-methyl-4-pentyl-N-phenyl-1′,2′,3′,4′-tetrahydro-[1,1′-biphenyl]-3-sulfonamide]",6.00 to 7.00,3.60 fold,5.30 to 6.00,–,–,–
"C=C(C)[C@@H]1CCC(C)=C[C@H]1c1c(O)cc(CCCCC)c(S(=O)(=O)Nc2ccccc2)c1O [Compound 24d, 2,6-dihydroxy-5′-methyl-4-pentyl-N-phenyl-2′-(prop-1-en-2-yl)-1′,2′,3′,4′-tetrahydro-[1,1′-biphenyl]-3-sulfonamide]",5.30 to 6.00,1.67 fold,5.30 to 6.00,–,–,–
"CCCCCc1cc(O)c(C2C=C(C)CCC2)c(O)c1S(=O)(=O)NCc1ccccc1 (stereo not shown) [Compound 25c, N-benzyl-2,6-dihydroxy-5′-methyl-4-pentyl-1′,2′,3′,4′-tetrahydro-[1,1′-biphenyl]-3-sulfonamide]",6.00 to 7.00,1.50 fold,6.00 to 7.00,–,–,–
"C=C(C)[C@@H]1CCC(C)=C[C@H]1c1c(O)cc(CCCCC)c(S(=O)(=O)NCc2ccccc2)c1O [Compound 25d, N-benzyl-2,6-dihydroxy-5′-methyl-4-pentyl-2′-(prop-1-en-2-yl)-1′,2′,3′,4′-tetrahydro-[1,1′-biphenyl]-3-sulfonamide]",5.30 to 6.00,2.00 fold,5.30 to 6.00,–,–,–
"CCCCCc1cc(O)c(C2C=C(C)CCC2)c(O)c1S(=O)(=O)N1CCOCC1 (stereo not shown) [Compound 28c, 5′-methyl-3-(morpholinosulfonyl)-4-pentyl-1′,2′,3′,4′-tetrahydro-[1,1′-biphenyl]-2,6-diol]",6.00 to 7.00,–,–,–,5.52 to 6.11,11 to 79%
"C=C(C)[C@@H]1CCC(C)=C[C@H]1c1c(O)cc(CCCCC)c(S(=O)(=O)N2CCOCC2)c1O [Compound 28d, 5′-Methyl-3-(Morpholinosulfonyl)-4-Pentyl-2′-(Prop-1-En-2-Yl)-1′,2′,3′,4′-Tetrahydro-[1,1′-Biphenyl]-2,6-Diol]",> 7.00,8.20 fold,6.00 to 7.00,–,–,–
"C=C(C)[C@@H]1CCC(C)=C[C@H]1c1c(O)cc(CCCCC)c(S(=O)(=O)N(CC)CC)c1O [Compound 62d, N,N-Diethyl-2,6-Dihydroxy-5′-Methyl-4-Pentyl-2′-(Prop-1-En-2-Yl)-1′,2′,3′,4′-Tetrahydro-[1,1′-Biphenyl]-3-Sulfonamide]",6.00 to 7.00,6.29 fold,6.00 to 7.00,–,5.52 to 6.11,11 to 79%
"C=C(C)[C@@H]1CCC(C)=C[C@H]1c1c(O)cc(CCCCC)c(S(=O)(=O)N(CCO)CCBr)c1O [Compound 63d, N-(2-bromoethyl)-2,6-dihydroxy-N-(2-hydroxyethyl)-5′-methyl-4-pentyl-2′-(prop-1-en-2-yl)-1′,2′,3′,4′-tetrahydro-[1,1′-biphenyl]-3-sulfonamide]",5.30 to 6.00,1.00 fold,5.30 to 6.00,1.00 fold,–,–
"C=C(C)[C@@H]1CCC(C)=C[C@H]1c1c(O)cc(CCCCC)c(S(=O)(=O)OCC(F)(F)F)c1O [Compound 64d, 2,2,2-trifluoroethyl-2,6-dihydroxy-5′-methyl-4-pentyl-2′-(prop-1-en-2-yl)-1′,2′,3′,4′-tetrahydro-[1,1′-biphenyl]-3-sulfonate]",6.00 to 7.00,–,6.00 to 7.00,2.00 fold,–,–
"C=C(C)[C@@H]1CCC(C)=C[C@H]1c1c(O)cc(CCC)c(S(=O)(=O)N(C)C)c1O [Compound 67d, 2,6-dihydroxy-N,N,5′-trimethyl-2′-(prop-1-en-2-yl)-4-propyl-1′,2′,3′,4′-tetrahydro-[1,1′-biphenyl]-3-sulfonamide]",5.30 to 6.00,3.08 fold,5.30 to 6.00,–,–,–
"C=C(C)[C@@H]1CCC(C)=C[C@H]1c1c(O)cc(CCC)c(S(=O)(=O)NC(C)C)c1O [Compound 68d, 2,6-dihydroxy-N-isopropyl-5′-methyl-2′-(prop-1-en-2-yl)-4-propyl-1′,2′,3′,4′-tetrahydro-[1,1′-biphenyl]-3-sulfonamide]",5.30 to 6.00,1.74 fold,5.30 to 6.00,–,–,–
"CCCCCc1cc(O)c(C2C=C(C)CCC2)c(O)c1C(=O)NS(=O)(=O)c1cccnc1 (stereo not shown) [Compound 71c, 2,6-dihydroxy-5′-methyl-4-pentyl-N-(pyridin-3-ylsulfonyl)-1′,2′,3′,4′-tetrahydro-[1,1′-biphenyl]-3-carboxamide]",6.00 to 7.00,–,6.00 to 7.00,1.14 fold,5.52 to 6.11,11 to 79%
